Target: T1, Histone deacetylase 11 (Homo sapiens, UniProt Q96DB2)
T1 sequence (Q96DB2 whole entry): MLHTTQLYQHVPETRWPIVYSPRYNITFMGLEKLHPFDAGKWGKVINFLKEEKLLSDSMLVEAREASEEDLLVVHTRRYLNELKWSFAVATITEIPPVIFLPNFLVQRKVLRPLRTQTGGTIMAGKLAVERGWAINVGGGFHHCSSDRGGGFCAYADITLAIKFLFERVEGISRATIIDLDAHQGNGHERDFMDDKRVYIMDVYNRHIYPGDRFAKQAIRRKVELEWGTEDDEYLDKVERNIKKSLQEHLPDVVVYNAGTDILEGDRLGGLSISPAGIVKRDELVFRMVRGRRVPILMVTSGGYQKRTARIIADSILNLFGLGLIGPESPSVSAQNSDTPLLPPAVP
Test: In Vitro Histone Deacetylase Assay II: The measurement of HD AC 11 deacetylase activity was performed using an electrophoretic mobility shift assay by Nanosyn (Santa Clara, Calif.). Full length human recombinant HD AC 11 protein was expressed in baculoviral system and purified by affinity chromatography. The enzymatic reactions were assembled in 384 well plates in a total volume of 25 μL in a reaction buffer composing: 100 mM HEPES, pH 7.5, 25 mM KCl, 0.1% bovine serum albumin, 0.01% Triton X-100, 1% DMSO (from compounds), 2 μM of the fluorescently labeled peptide substrate and enzyme. The enzyme was added at a final concentration of 10 nM. The peptide substrate FAM-RHKK(tri-fluor-Ac)—NH2 was used. The compounds were tested at 12 concentrations spaced by 3× dilution intervals. Negative control samples (0%-inhibition in the absence of inhibitor) and positive control samples (100%-inhibition) were assembled in replicates of four in each assay plate. The reactions were incubated at 25° C. and quenched by the addition of 45 μL of termination buffer (100 mM HEPES, pH 7.5, 0.01% Triton X-100, 0.05% SDS).The terminated assay plates were analyzed on LabChip® 3000 microfluidic electrophoresis instrument (Perkin Elmer/Caliper Life Sciences). The fluorescence intensity of the electrophoretically separated de-acetylated product and substrate peptide was measured. […]

`O=C(NO)c1cccc2c1CN(c1nc3ccccc3[nH]1)C2` showed an IC50 of less than 500 nM.

Source: ChEMBL document CHEMBL5729501, “Isoindolines as HDAC inhibitors” (2022)
